From US12122750B2, “AT2R antagonists and uses thereof” (Eli Lilly and Company, priority 2022, dated 2024)

How the values were obtained:
[1] = target: recombinant human angiotensin-II receptor subtype 2 (hAT2R) (Homo sapiens (Human), UniProt P50052); assay: Competitive radioligand binding assay (SPA), hAT2R HEK293 membranes; conditions: [125I]-Tyr4-Angiotensin-II, read-out: AT2R Ki
Outline: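 SPA competition binding on membranes from HEK293 cells stably transfected with hAT2R (0.25 μg/well, with 0.1 mg/well PVT-WGA beads) in 50 mM Tris-HCl pH 7.5, 150 mM NaCl, 0.1% fatty-acid-free BSA. Ten-point four-fold dilution curves ran from 50 μM top final concentration. Bound radioactivity was counted (CPM) after 10 h at room temperature.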

AT2R = AT2R (Rattus norvegicus (Rat), UniProt P35351); assay: Inhibition of C21-induced increase in dermal blood flow (laser Doppler imaging); type: in vivo, Sprague Dawley rats
AT2R, sequence (P35351 whole entry): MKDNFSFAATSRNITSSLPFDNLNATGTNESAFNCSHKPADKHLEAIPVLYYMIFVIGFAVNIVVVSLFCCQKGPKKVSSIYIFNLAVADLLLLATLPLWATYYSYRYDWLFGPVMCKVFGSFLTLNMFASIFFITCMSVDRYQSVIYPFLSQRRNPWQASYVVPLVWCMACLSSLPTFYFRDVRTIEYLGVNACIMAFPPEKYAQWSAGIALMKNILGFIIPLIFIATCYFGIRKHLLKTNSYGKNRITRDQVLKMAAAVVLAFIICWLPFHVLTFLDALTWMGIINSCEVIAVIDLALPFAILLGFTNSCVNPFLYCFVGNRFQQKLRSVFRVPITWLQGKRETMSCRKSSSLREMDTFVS

recombinant human angiotensin-II receptor subtype 2 (hAT2R), sequence (P50052 whole entry): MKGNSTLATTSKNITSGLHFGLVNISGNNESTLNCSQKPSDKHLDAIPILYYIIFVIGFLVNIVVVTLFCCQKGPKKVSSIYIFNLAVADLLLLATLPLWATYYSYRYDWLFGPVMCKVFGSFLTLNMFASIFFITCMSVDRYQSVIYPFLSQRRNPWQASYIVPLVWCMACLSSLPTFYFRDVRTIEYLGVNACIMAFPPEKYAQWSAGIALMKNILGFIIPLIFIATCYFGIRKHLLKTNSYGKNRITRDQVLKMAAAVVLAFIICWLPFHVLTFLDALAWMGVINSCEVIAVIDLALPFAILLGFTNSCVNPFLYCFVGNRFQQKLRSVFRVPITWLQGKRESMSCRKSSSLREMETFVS

O=C(N1CCC(CC(=O)N(c2ccccc2)c2ccccc2)(C(=O)O)CC1)N1CCc2ccccc21 [Example 3, 1-(indoline-1-carbonyl)-4-[2-oxo-2-(N-phenylanilino)ethyl]piperidine-4-carboxylic acid] was tested, and the Ki [1] was 5.36 nM, the “mode of action at AT2R (inhibition of C21-induced dermal blood flow)” value (AT2R; AT2R agonist C21 intradermal) was “acting as a antagonist” and the inhibition at 0.3 mg/kg (AT2R; dose 0.3 mg/kg, C21-induced increase in dermal blood flow) was 49.6%. For the same compound, the inhibition at 3 mg/kg (AT2R; dose 3 mg/kg, C21-induced increase in dermal blood flow) was 62.9%, the inhibition at 10 mg/kg (AT2R; C21-induced increase in dermal blood flow) was 74.3% and the inhibition at 10 mg/kg (AT2R; second, unlabelled column under % Inhibition) was 95.6%.

CN(C(=O)N1CCC(CC(=O)N(c2ccccc2)C(C2CC2)C2CC2)(C(=O)O)CC1)c1ccc(F)cc1 [Example 18, 4-[2-[N-(dicyclopropylmethyl)anilino]-2-oxo-ethyl]-1-[(4-fluorophenyl)-methyl-carbamoyl]piperidine-4-carboxylic acid] gave a Ki [1] of 9.59 nM.
